HELM strings list units from the 5' end as sugar, base in round brackets, then linkage (d deoxyribose, r ribose, m 2'-O-methyl, p phosphodiester). Strings are as the collection lists them; they lack the last nucleoside at the 3' end of the tested compound. [moe] = 2'-O-(2-methoxyethyl) (MOE); [sp] = phosphorothioate linkage; [m5C] = 5-methylcytosine
Molecular target: UBE3A-ATS
Assay: mouse, dose not given
Details: ASO

Substance	3 h FOB score [score 0-7]
RNA1{[moe](G)[sp].[moe]([m5C])p.[moe](A)p.[moe]([m5C])p.[moe](A)p.d([m5C])[sp].d([m5C])[sp].d(T)[sp].d(G)[sp].d(G)[sp].d(A)[sp].d(T)[sp].d(T)[sp].d(T)[sp].d([m5C])[sp].[moe](A)p.[moe]([m5C])p.[moe](T)[sp].[moe](A)}$$$$ (last 3' nucleoside missing)	2
RNA1{[moe](G)[sp].[moe]([m5C])p.[moe](A)p.[moe]([m5C])p.[moe](T)p.d(T)[sp].d(A)[sp].d(A)[sp].d(A)[sp].d(T)[sp].d(T)[sp].d(T)[sp].d(A)[sp].d(T)[sp].d([m5C])[sp].[moe](A)p.[moe](G)p.[moe](T)[sp].[moe](T)}$$$$ (last 3' nucleoside missing)	3
RNA1{[moe](G)[sp].[moe]([m5C])p.[moe](T)p.[moe](A)p.[moe](T)p.d(A)[sp].d(G)[sp].d(G)[sp].d(T)[sp].d(G)[sp].d(T)[sp].d([m5C])[sp].d(A)[sp].d([m5C])[sp].d(A)[sp].[moe](T)p.[moe](A)p.[moe](T)[sp].[moe](T)}$$$$ (last 3' nucleoside missing)	2
RNA1{[moe](G)[sp].[moe]([m5C])p.[moe](T)p.[moe](A)p.[moe](T)p.d(A)[sp].d([m5C])[sp].d([m5C])[sp].d([m5C])[sp].d([m5C])[sp].d(T)[sp].d(A)[sp].d(G)[sp].d(G)[sp].d(A)[sp].[moe](T)p.[moe]([m5C])p.[moe](A)[sp].[moe](G)}$$$$ (last 3' nucleoside missing)	3.8
RNA1{[moe](G)[sp].[moe]([m5C])p.[moe](T)p.[moe](A)p.[moe](T)p.d([m5C])[sp].d(T)[sp].d(G)[sp].d(T)[sp].d(A)[sp].d([m5C])[sp].d(A)[sp].d(A)[sp].d(A)[sp].d(A)[sp].[moe](T)p.[moe](G)p.[moe](G)[sp].[moe](A)}$$$$ (last 3' nucleoside missing)	0
RNA1{[moe](G)[sp].[moe]([m5C])p.[moe](T)p.[moe](G)[sp].d(A)[sp].d(T)[sp].d([m5C])[sp].d(A)[sp].d([m5C])[sp].d(A)[sp].d(T)[sp].d(T)[sp].[moe](A)p.[moe]([m5C])p.[moe]([m5C])p.[moe]([m5C])[sp].[moe](A)}$$$$ (last 3' nucleoside missing)	0
RNA1{[moe](G)[sp].[moe]([m5C])p.[moe](T)p.[moe](G)p.[moe](A)[sp].d(T)[sp].d([m5C])[sp].d(A)[sp].d([m5C])[sp].d(A)[sp].d(T)[sp].d(T)[sp].d(A)[sp].[moe]([m5C])p.[moe]([m5C])p.[moe]([m5C])[sp].[moe](A)}$$$$ (last 3' nucleoside missing)	1
RNA1{[moe](G)[sp].[moe]([m5C])p.[moe](T)p.[moe](G)p.[moe](A)p.[moe](T)[sp].d([m5C])[sp].d(A)[sp].d([m5C])[sp].d(A)[sp].d(T)[sp].d(T)[sp].d(A)[sp].d([m5C])[sp].[moe]([m5C])p.[moe]([m5C])[sp].[moe](A)}$$$$ (last 3' nucleoside missing)	0
RNA1{[moe](G)[sp].[moe]([m5C])p.[moe](T)p.[moe](G)p.[moe](A)p.[moe](T)p.d([m5C])[sp].d(A)[sp].d([m5C])[sp].d(A)[sp].d(T)[sp].d(T)[sp].d(A)[sp].d([m5C])[sp].d([m5C])[sp].d([m5C])[sp].[moe](A)p.[moe](T)[sp].[moe]([m5C])}$$$$ (last 3' nucleoside missing)	0
RNA1{[moe](G)[sp].[moe]([m5C])p.[moe](T)p.[moe](G)p.[moe](A)p.d(T)[sp].d([m5C])[sp].d(A)[sp].d([m5C])[sp].d(A)[sp].d(T)[sp].d(T)[sp].d(A)[sp].d([m5C])[sp].d([m5C])[sp].[moe]([m5C])p.[moe](A)p.[moe](T)[sp].[moe]([m5C])}$$$$ (last 3' nucleoside missing)	0
RNA1{[moe](G)[sp].[moe]([m5C])p.[moe](T)p.[moe](G)p.[moe](T)p.d(A)[sp].d(A)[sp].d(G)[sp].d(T)[sp].d(A)[sp].d(T)[sp].d(A)[sp].d(G)[sp].d(A)[sp].d(T)[sp].[moe](G)p.[moe]([m5C])p.[moe]([m5C])[sp].[moe](T)}$$$$ (last 3' nucleoside missing)	2
RNA1{[moe](G)[sp].[moe]([m5C])p.[moe](T)p.[moe](G)p.d(A)[sp].d(T)[sp].d([m5C])[sp].d(A)[sp].d([m5C])[sp].d(A)[sp].d(T)[sp].d(T)[sp].d(A)[sp].d([m5C])[sp].[moe]([m5C])p.[moe]([m5C])p.[moe](A)p.[moe](T)[sp].[moe]([m5C])}$$$$ (last 3' nucleoside missing)	0
RNA1{[moe](G)[sp].[moe]([m5C])p.[moe](T)p.[moe](T)p.[moe](A)p.d(G)[sp].d(G)[sp].d([m5C])[sp].d(A)[sp].d(A)[sp].d(T)[sp].d(G)[sp].d(G)[sp].d(A)[sp].d([m5C])[sp].[moe](T)p.[moe](T)p.[moe](A)[sp].[moe](G)}$$$$ (last 3' nucleoside missing)	5.5
RNA1{[moe](G)[sp].[moe]([m5C])p.[moe](T)p.[moe](T)p.[moe](A)p.d(T)[sp].d(G)[sp].d(T)[sp].d(A)[sp].d(G)[sp].d([m5C])[sp].d(T)[sp].d([m5C])[sp].d(A)[sp].d(G)[sp].[moe]([m5C])p.[moe](T)p.[moe]([m5C])[sp].[moe](A)}$$$$ (last 3' nucleoside missing)	1
RNA1{[moe](G)[sp].[moe]([m5C])p.[moe](T)p.[moe](T)p.[moe](T)p.d(A)[sp].d(G)[sp].d(T)[sp].d(A)[sp].d(T)[sp].d(G)[sp].d(T)[sp].d([m5C])[sp].d(G)[sp].d(A)[sp].[moe](G)p.[moe](A)p.[moe](A)[sp].[moe]([m5C])}$$$$ (last 3' nucleoside missing)	6
RNA1{[moe](G)[sp].[moe]([m5C])p.[moe](T)p.[moe](T)p.[moe](T)p.d(A)[sp].d(T)[sp].d(A)[sp].d([m5C])[sp].d(T)[sp].d(T)[sp].d(T)[sp].d(A)[sp].d([m5C])[sp].d([m5C])[sp].[moe]([m5C])p.[moe](A)p.[moe](A)[sp].[moe]([m5C])}$$$$ (last 3' nucleoside missing)	1
RNA1{[moe](G)[sp].[moe]([m5C])p.[moe](T)p.[moe](T)p.[moe](T)p.d(T)[sp].d([m5C])[sp].d(A)[sp].d(G)[sp].d(T)[sp].d([m5C])[sp].d(A)[sp].d(G)[sp].d(G)[sp].d(T)[sp].[moe](A)p.[moe]([m5C])p.[moe](A)[sp].[moe](G)}$$$$ (last 3' nucleoside missing)	6
RNA1{[moe](G)[sp].[moe]([m5C])p.[moe](T)p.[moe](T)p.[moe]([m5C])p.[moe](A)p.d([m5C])[sp].d([m5C])[sp].d(A)[sp].d(T)[sp].d(T)[sp].d(T)[sp].d(T)[sp].d(G)[sp].d(A)[sp].d([m5C])[sp].[moe]([m5C])p.[moe](T)[sp].[moe](T)}$$$$ (last 3' nucleoside missing)	1
RNA1{[moe](G)[sp].[moe]([m5C])p.[moe](T)p.[moe](T)p.[moe]([m5C])p.d(A)[sp].d([m5C])[sp].d([m5C])[sp].d(A)[sp].d(T)[sp].d(T)[sp].d(T)[sp].d(T)[sp].d(G)[sp].d(A)[sp].[moe]([m5C])p.[moe]([m5C])p.[moe](T)[sp].[moe](T)}$$$$ (last 3' nucleoside missing)	2.2

Source: the OligoGym collection
